ChEMBL document CHEMBL1201862, “PubChem BioAssay data set” (2004)
Activity calls are given as the source filed them.

What was measured:
[1] = off-target signal loss in HeLa-CEM21 co-culture – HeLa F-luc CTL cells, cherry-picked, counter-screen for HIV-1 Env fusion inhibitor project, dose response (AID 652040); format: functional, cell-based;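 note: potency for signal decrease marking cytotoxic or nonspecific inhibition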
[2] = target: T1, Short transient receptor potential channel 4 (Mus musculus, UniProt Q9QUQ5); assay: calcium entry via TRPC4 opening agents – cell-based, HEK293 TRPC4/mu-opioid, Fluo-4 calcium, dose response (AID 434937); format: functional
T1 sequence (Q9QUQ5 whole entry): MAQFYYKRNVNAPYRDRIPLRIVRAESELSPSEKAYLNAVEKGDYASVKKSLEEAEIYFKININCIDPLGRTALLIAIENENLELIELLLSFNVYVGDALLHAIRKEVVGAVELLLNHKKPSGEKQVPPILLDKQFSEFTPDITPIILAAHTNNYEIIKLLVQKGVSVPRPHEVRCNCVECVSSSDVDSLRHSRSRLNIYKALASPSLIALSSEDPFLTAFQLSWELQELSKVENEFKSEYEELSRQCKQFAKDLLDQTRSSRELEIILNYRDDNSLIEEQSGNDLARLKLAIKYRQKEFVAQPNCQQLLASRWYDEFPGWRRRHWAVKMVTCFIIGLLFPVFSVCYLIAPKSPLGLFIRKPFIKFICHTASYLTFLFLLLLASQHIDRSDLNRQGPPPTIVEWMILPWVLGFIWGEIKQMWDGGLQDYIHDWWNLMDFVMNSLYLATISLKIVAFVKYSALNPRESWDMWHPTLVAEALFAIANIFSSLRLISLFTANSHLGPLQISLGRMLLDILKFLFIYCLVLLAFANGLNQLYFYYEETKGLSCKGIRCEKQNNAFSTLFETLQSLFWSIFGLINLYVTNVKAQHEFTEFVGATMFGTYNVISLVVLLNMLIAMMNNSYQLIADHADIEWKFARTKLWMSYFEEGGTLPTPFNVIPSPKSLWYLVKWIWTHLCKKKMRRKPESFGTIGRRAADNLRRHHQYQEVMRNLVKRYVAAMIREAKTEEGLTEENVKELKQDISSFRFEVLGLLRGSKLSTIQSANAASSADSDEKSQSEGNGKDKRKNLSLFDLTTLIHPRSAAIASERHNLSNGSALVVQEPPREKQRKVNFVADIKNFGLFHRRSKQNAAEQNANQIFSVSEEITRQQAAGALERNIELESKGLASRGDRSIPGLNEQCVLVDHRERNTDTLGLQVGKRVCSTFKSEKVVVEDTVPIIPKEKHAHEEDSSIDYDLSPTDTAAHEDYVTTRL

[3] = blockers of HIV-1 ZM109 envelope-driven cell-cell fusion – HeLa effector, CEM target cells, luciferase, cherry-pick, dose response (AID 652058); format: functional, cell-based;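 note: luciferase signal from HIV-1 Env mediated cell-cell fusion of effector and target cells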
[4] = target: Delta-type opioid receptor (Homo sapiens, UniProt P41143); assay: Counterscreen for agonists of heterodimerization of the mu 1 (OPRM1) and delta 1 (OPRD1) opioid receptors: Luminescence-based cell-based high throughput dose response assay to identify agonists of OPRD1 homodimerization. [Related pubchem assays (depositor defined):AID504326, AID504355, AID504692, AID504904, AID504905]; format: functional
Chain of Delta-type opioid receptor (P41143 whole entry): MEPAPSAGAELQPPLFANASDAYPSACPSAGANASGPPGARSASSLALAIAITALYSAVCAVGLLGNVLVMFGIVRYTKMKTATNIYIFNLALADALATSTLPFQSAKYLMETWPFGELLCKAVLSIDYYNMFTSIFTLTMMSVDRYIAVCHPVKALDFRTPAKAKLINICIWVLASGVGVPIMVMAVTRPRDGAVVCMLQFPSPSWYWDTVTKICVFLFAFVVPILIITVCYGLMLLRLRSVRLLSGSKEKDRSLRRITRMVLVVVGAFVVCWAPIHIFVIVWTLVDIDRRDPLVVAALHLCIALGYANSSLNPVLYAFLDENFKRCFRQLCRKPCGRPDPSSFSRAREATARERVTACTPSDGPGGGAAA

[5] = target: 5-hydroxytryptamine receptor 5A (Homo sapiens, UniProt P47898); assay: Counterscreen for agonists of OPRM1-OPRD1 heterodimerization: luminescence-based cell-based high throughput dose response assay to identify agonists of 5-hydroxytryptamine (serotonin) 5A receptor (HTR5A). [Related pubchem assays (depositor defined):AID504326, AID504355, AID504692, AID504904, AID504905]; format: functional
Chain of 5-hydroxytryptamine receptor 5A (P47898 whole entry): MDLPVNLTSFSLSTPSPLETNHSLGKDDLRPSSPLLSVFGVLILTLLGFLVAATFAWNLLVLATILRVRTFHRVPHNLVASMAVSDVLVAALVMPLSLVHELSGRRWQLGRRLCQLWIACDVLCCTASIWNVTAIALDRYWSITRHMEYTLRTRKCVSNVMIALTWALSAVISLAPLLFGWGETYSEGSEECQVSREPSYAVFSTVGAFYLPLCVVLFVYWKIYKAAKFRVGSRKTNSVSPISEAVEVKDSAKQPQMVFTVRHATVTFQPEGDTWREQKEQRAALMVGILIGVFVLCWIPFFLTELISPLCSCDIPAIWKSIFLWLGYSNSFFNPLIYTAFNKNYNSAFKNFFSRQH

[6] = target: Mu-type opioid receptor (Homo sapiens, UniProt P35372); assay: Counterscreen for agonists of heterodimerization of the mu 1 (OPRM1) and delta 1 (OPRD1) opioid receptors: Luminescence-based cell-based high throughput dose response assay to identify agonists of OPRM1 homodimerization.; format: functional;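 note: U2OS cells expressing OPRM1 and beta-arrestin as split beta-galactosidase partners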
Chain of Mu-type opioid receptor (P35372 whole entry, the tested form may be a part): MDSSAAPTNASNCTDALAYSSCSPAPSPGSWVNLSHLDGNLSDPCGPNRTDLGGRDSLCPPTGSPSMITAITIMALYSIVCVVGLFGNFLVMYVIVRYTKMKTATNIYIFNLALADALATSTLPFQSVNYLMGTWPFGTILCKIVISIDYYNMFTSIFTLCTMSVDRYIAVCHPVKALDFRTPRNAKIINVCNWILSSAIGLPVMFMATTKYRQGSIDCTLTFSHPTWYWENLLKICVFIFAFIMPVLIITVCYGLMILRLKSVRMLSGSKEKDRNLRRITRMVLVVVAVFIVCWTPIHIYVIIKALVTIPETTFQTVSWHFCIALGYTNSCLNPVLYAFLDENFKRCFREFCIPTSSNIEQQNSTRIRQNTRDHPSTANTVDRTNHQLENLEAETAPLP

[7] = HIV-1 AD8 envelope cell-cell fusion blockers – cherry-pick, dose response (AID 652062); format: functional, cell-based;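 note: luciferase signal from cell-cell fusion driven by HIV-1 clade B AD8 Env; potency is for inhibitors of fusion seen as a drop in luminescence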
[8] = blockers of HIV-1 envelope-mediated cell-cell fusion – cherry-pick, dose response (AID 652057); format: functional, cell-based
[9] = tested on: HEK293; assay: cells; details: Homo sapiens
[10] = tested on: HEK293; assay: cells; details: Homo sapiens; remark: listed apart in the source
[11] = target: Disintegrin and metalloproteinase domain-containing protein 17 (Homo sapiens, UniProt P78536); assay: inhibition of ADAM17 substrate cleavage – biochemical, quenched FRET substrate, counter-screen for ADAM10 exosite inhibitor project, dose response (AID 743253)
Chain of Disintegrin and metalloproteinase domain-containing protein 17 (P78536 whole entry, the tested form may be a part): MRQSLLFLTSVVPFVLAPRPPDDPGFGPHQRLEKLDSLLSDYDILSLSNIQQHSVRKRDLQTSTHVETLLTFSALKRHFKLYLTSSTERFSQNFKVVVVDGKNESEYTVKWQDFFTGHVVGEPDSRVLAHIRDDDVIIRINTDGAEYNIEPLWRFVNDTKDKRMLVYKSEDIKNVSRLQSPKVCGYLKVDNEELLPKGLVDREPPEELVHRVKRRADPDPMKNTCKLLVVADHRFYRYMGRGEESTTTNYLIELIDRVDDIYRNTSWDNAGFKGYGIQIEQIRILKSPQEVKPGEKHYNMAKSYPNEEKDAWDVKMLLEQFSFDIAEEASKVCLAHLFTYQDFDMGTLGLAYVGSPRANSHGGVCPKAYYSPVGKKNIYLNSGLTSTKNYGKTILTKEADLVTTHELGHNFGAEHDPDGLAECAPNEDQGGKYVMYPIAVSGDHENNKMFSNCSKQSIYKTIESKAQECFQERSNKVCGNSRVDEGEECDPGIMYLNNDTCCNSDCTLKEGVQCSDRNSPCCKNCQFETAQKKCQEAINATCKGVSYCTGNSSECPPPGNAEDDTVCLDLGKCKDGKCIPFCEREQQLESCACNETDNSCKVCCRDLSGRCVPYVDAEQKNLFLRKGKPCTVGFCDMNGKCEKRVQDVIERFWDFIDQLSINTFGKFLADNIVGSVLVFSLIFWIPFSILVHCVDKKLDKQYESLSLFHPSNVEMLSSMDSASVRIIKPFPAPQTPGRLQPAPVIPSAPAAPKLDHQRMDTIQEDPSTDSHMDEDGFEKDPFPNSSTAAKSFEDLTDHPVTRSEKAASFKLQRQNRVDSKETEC

[12] = potency of ADAM10 substrate cleavage blockers – biochemical, QFRET, dose response (AID 743254);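 note: ADAM10 enzyme with the DM2 quenched FRET peptide as substrate; EDANS fluorescence gain as the protease cuts the substrate; inhibitor potency against ADAM10 proteolytic activity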
[13] = target: Lysine-specific demethylase 4C (Homo sapiens, UniProt Q9H3R0); assay: inhibition of JMJD2C H3K9me3 demethylation – biochemical, DELFIA europium, cherry-picked samples, dose response (AID 488835); format: functional
Chain of Lysine-specific demethylase 4C (Q9H3R0 whole entry): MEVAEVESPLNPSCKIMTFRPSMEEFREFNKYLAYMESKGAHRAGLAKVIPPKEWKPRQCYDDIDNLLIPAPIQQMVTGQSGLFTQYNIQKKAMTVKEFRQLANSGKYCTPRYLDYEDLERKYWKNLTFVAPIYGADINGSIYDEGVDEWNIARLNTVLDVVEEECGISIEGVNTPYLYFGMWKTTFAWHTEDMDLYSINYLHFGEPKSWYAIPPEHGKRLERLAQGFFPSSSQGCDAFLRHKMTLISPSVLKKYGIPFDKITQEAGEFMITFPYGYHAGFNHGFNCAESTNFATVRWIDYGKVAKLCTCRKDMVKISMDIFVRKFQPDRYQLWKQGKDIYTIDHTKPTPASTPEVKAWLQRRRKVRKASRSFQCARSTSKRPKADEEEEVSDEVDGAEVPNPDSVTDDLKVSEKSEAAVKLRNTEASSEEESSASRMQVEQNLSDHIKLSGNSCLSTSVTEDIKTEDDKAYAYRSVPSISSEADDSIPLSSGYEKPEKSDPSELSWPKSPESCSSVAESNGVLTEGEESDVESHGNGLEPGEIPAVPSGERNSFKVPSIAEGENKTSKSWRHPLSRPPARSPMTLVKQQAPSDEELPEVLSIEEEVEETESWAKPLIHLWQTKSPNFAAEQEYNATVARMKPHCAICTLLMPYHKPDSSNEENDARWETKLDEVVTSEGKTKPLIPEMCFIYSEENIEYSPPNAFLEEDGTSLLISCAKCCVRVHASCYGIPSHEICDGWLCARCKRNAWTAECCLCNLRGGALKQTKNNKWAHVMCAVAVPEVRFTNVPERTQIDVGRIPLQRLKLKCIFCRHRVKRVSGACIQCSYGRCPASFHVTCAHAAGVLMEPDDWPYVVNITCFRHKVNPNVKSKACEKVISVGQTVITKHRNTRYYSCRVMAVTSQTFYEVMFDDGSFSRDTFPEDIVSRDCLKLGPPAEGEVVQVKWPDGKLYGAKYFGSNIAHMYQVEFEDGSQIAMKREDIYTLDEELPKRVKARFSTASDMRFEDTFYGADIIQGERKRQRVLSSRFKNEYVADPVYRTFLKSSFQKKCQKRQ

[14] = tested on: Vero; assay: cells; format: functional; details: Chlorocebus sabaeus
[15] = Luminescence Cell-Based Dose Retest to Confirm Inhibitors of Cancer Stem Cells. [Related pubchem assays (depositor defined):AID2717, AID2721]; format: functional; details: Homo sapiens
[16] = viability loss of HMLE_sh_eGFP cells – cell-based, luminescence, counter-screen for HMLE_sh_ECad selective toxicity project, dose response (AID 463074); format: functional, Homo sapiens;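 note: HMLE human mammary epithelial cells expressing control shRNA against eGFP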

**Q.** Which AC50 [1] does the source give for `Cc1ccc(C)c(-n2cc(CNCCCn3cccn3)c(-c3ccccc3)n2)c1` here?
**A.** 1.82 µM (active)

**Q.** What about the EC50 [2] of the same molecule?
**A.** 1.5 µM (active)

**Q.** What about the AC50 [3] of the same molecule?
**A.** 0.631 µM (active)

**Q.** What about the EC50 [4] of the same molecule?
**A.** > 92.5 µM (inactive)

**Q.** And the EC50 [5]?
**A.** > 92.5 µM (inactive)

**Q.** And the EC50 [6]?
**A.** 10.1 µM (inactive)

**Q.** What about the AC50 [7] of the same molecule?
**A.** 2.56 µM (active)

**Q.** What about the AC50 [8] of the same molecule?
**A.** 1.28 µM (active)

**Q.** For `O=S(=O)(NCC(Nc1ccc(Cl)cc1)c1ccccc1)c1ccc(Cl)cc1` (stereo unspecified), which EC50 [9] is on record?
**A.** > 59.7 µM (inactive)

**Q.** What about the EC50 [10] of the same molecule?
**A.** > 59.7 µM (inactive)

**Q.** And the IC50 [11]?
**A.** > 69.5 µM (inactive)

**Q.** What about the IC50 [12] of the same molecule?
**A.** 11.7 µM (inactive)

**Q.** With `Oc1cc(NC2CCCCCC2)nc(O)n1` as the molecule, how does the AC50 [13] read?
**A.** 8.69 µM (active)

**Q.** Which CC50 [14] does the source give for `Cc1cc(N/N=C/c2ccc(Cl)cc2Cl)nc(NCc2ccccc2)n1` here?
**A.** > 25 µM (active)

**Q.** What about the AC50 [15] of the same molecule?
**A.** 3.49 µM (active)

**Q.** What about the AC50 [16] of the same molecule?
**A.** 32.2 µM (active)
